From patent publication US20120021012A1, “NOVEL PHARMACEUTICAL USES FOR NANOPARTICLES” (CENTRE NATIONAL DE LA RECHERCHE SCIENTIFIQUE (C.N.R.S), priority 2008, published 2012)

Test system: human squamous carcinoma cell line HSC-2
Experiment: MTT cell survival assay, HSC human cancer cell line
Format: cell-based
Conditions: paclitaxel applied 72 hours, AT84 and SG lines (FIG. 4)
Description: Cell survival was measured using a colorimetric method with 3-(4,5-dimethylthiazol-2-yl)-2,5-diphenyltetrazolium bromide (MTT). This molecule of yellow colour is reduced by mitochondrial dehydrogenase enzymes to a blue-coloured salt. This allows cell viability to be quantified in response to a treatment.
Cell survival was measured before and after exposure to different concentrations of SiC nanoparticles (0.1-0.5-1 mg/mL in a suspension of RPMI medium 10% FCS).
The cells were cultured in 96-well plates in the presence of SiC nanoparticles for 18 hours after which the media were replaced by standard culture media without any nanoparticles (RPMI medium 10% FCS, Sigma).
Cell viability was measured after different times (24, 48 and 72 hours). […]
Cell viability was measured by the difference in optical density at wavelengths of 450 and 504 nm, using a spectrophotometer connected to a computer system (Power Wave, Bio-Tek Instrument Inc.). The measured absorbency is then directly proportional to the number of living cells. The results are expressed as percentage survival measured under the initial conditions before exposure of the cells to the SiC nanoparticles. […]
Cell survival was measured using a colorimetric method with 3-(4,5-diemthylthiazol-2-yl)-2,5-diphenyltetrazolium bromide (MTT) such as described above in Example 1. […]
Cell viability was measured after 72 hours. […]

SMILES: CC(=O)O[C@H]1C(=O)[C@@]2(C)[C@H]([C@H](OC(=O)c3ccccc3)[C@]3(O)C[C@H](OC(=O)[C@H](O)[C@@H](NC(=O)c4ccccc4)c4ccccc4)C(C)=C1C3(C)C)[C@]1(OC(C)=O)CO[C@@H]1C[C@@H]2O [paclitaxel]
- inhibition percentages of cell survival compared with the SiC nanoparticles: of the same order
